Measurements: patent US6498125B2, “Pyridine ketones useful as herbicides” (Syngenta Participations AG, priority 1998, dated 2002)

What was measured:
Format in all cases: in vivo
Stellaria [1] = assay: Example B3: pre-emergence action, 250 g/ha; details: 250 g of AS/ha, sprayed immediately after sowing, 3 weeks, nine-level scale 1=complete damage, 9=no effect
Procedure: (§1) Monocotyledonous and dicotyledonous test plants are sown in pots in standard soil. Immediately after sowing, the test substances are sprayed on (500 l of spray liquorlha) as an aqueous suspension, prepared from a wettable powder WP10 corresponding to the desired dosage (250 g of a.i./ha).
(§2) The test plants are then grown under optimum conditions in a greenhouse. After a test period of 3 weeks, the test is evaluated with a nine -evel scale of ratings (1=complete damage, 9=no effect). Ratings of 1 to 4 (in particular 1 to 3) mean good to very good herbicidal action, 7-9 mean good tolerance.

Chenopodium [2] = assay: Example B3: pre-emergence action, 250 g/ha; details: 250 g of AS/ha, sprayed immediately after sowing, 3 weeks, nine-level scale 1=complete damage, 9=no effect
Procedure: as §1, §2

Abutilon [3] = assay: Example B3: pre-emergence action, 250 g/ha; details: 250 g of AS/ha, sprayed immediately after sowing, 3 weeks, nine-level scale 1=complete damage, 9=no effect
Procedure: as §1, §2

Sida [4] = assay: Example B3: pre-emergence action, 250 g/ha; details: 250 g of AS/ha, sprayed immediately after sowing, 3 weeks, nine-level scale 1=complete damage, 9=no effect
Procedure: as §1, §2

Kochia [5] = assay: Example B3: pre-emergence action, 250 g/ha; details: 250 g of AS/ha, sprayed immediately after sowing, 3 weeks, nine-level scale 1=complete damage, 9=no effect
Procedure: as §1, §2

Amaranthus [6] = assay: Example B3: pre-emergence action, 250 g/ha; details: 250 g of AS/ha, sprayed immediately after sowing, 3 weeks, nine-level scale 1=complete damage, 9=no effect
Procedure: as §1, §2

Stellaria [7] = assay: Example B4: post-emergence action, 250 g/ha; details: 250 g of AS/ha, sprayed in the 2-3-leaf stage, 0.2% X77, 3 weeks, nine-level scale 1=complete damage, 9=no effect
Procedure: (§3) Monocotyledonous and dicotyledonous test plants are sown in pots in standard soil. In the 2-3- leaf stage of the test plants, the test substances are sprayed on (500 l of spray liquor/ha) as an aqueous suspension, prepared from a wettable powder WP10 according to the desired dosage (250 g of a.i./ha). 0.2% of X77 is added as wetting agent to the spray liquor. The test plants are then grown under optimum conditions in a greenhouse.
(§4) After a test period of 3 weeks, the test is evaluated with a nine4evel scale of ratings (1=complete damage, 9=no effect). Ratings of 1 to 4 (in particular 1 to 3) mean good to very good herbicidal action, 7-9 mean good tolerance.

Chenopodium [8] = assay: Example B4: post-emergence action, 250 g/ha; details: 250 g of AS/ha, sprayed in the 2-3-leaf stage, 0.2% X77, 3 weeks, nine-level scale 1=complete damage, 9=no effect
Procedure: as §3, §4

Abutilon [9] = assay: Example B4: post-emergence action, 250 g/ha; details: 250 g of AS/ha, sprayed in the 2-3-leaf stage, 0.2% X77, 3 weeks, nine-level scale 1=complete damage, 9=no effect
Procedure: as §3, §4

Sida [10] = assay: Example B4: post-emergence action, 250 g/ha; details: 250 g of AS/ha, sprayed in the 2-3-leaf stage, 0.2% X77, 3 weeks, nine-level scale 1=complete damage, 9=no effect
Procedure: as §3, §4

Kochia [11] = assay: Example B4: post-emergence action, 250 g/ha; details: 250 g of AS/ha, sprayed in the 2-3-leaf stage, 0.2% X77, 3 weeks, nine-level scale 1=complete damage, 9=no effect
Procedure: as §3, §4

Amaranthus [12] = assay: Example B4: post-emergence action, 250 g/ha; details: 250 g of AS/ha, sprayed in the 2-3-leaf stage, 0.2% X77, 3 weeks, nine-level scale 1=complete damage, 9=no effect
Procedure: as §3, §4

Row | Compound | Pre-emergence action: Stellaria (rating) (Stellaria [1]) | Pre-emergence action: Chenopodium (rating) (Chenopodium [2]) | Pre-emergence action: Abutilon (rating) (Abutilon [3]) | Pre-emergence action: Sida (rating) (Sida [4]) | Pre-emergence action: Kochia (rating) (Kochia [5]) | Pre-emergence action: Amaranthus (rating) (Amaranthus [6]) | Post-emergence action: Stellaria (rating) (Stellaria [7]) | Post-emergence action: Chenopodium (rating) (Chenopodium [8]) | Post-emergence action: Abutilon (rating) (Abutilon [9]) | Post-emergence action: Sida (rating) (Sida [10]) | Post-emergence action: Kochia (rating) (Kochia [11]) | Post-emergence action: Amaranthus (rating) (Amaranthus [12])
1 | CSc1ccc(C(=O)C2=C(O)C3CCC(C3)C2=O)c(C(F)(F)F)n1 (stereo not drawn) [Compound 1.335] | 7 | 1 | 1 | 2 | 5 | 2 | 3 | 2 | 3 | 2 | 2 | 2
2 | CS(=O)(=O)c1ccc(C(=O)C2=C(O)C3CCC(C3)C2=O)c(C(F)(F)F)n1 (stereo not drawn) [Compound 1.339] | 1 | 1 | 2 | 2 | 7 | 1 | 3 | 3 | 2 | 4 | 1 | 2
3 | CCSc1ccc(C(=O)C2=C(O)C3CCC(C3)C2=O)c(C(F)(F)F)n1 (stereo not drawn) [Compound 1.341] | 1 | 1 | 3 | 4 | 9 | 9 | 4 | 3 | 5 | 5 | 4 | 2
4 | CC[S+]([O-])c1ccc(C(=O)C2=C(O)C3CCC(C3)C2=O)c(C(F)(F)F)n1 (stereo not drawn) [Compound 1.343] | 5 | 1 | 1 | 3 | 9 | 4 | 3 | 2 | 3 | 9 | 3 | 2
5 | COc1ccc(C(=O)C2=C(O)C3CCC(C3)C2=O)c(C(F)(F)F)n1 (stereo not drawn) [Compound 1.347] | 1 | 1 | 2 | 4 | 1 | 2 | 3 | 2 | 3 | 3 | 2 | 2
6 | O=C(C1=C(O)C2CCC(C2)C1=O)c1ccc(OCC(F)(F)F)nc1C(F)(F)F (stereo not drawn) [Compound 1.349] | 5 | 1 | 1 | 2 | 4 | 3 | 3 | 2 | 2 | 2 | 2 | 2
7 | O=C(C1=C(O)C2CCC(C2)C1=O)c1ccc(Cl)nc1C(F)(F)F (stereo not drawn) [Compound 1.355] | 2 | 1 | 1 | 2 | 1 | 1 | 3 | 2 | 2 | 2 | 3 | 2
